Data on 11 molecules can be found in PMC3875304 (Journal of medicinal chemistry, 2009).

The target in assay [1] is T1, M1 (Homo sapiens, UniProt P11229).
T1 sequence (P11229 1-460): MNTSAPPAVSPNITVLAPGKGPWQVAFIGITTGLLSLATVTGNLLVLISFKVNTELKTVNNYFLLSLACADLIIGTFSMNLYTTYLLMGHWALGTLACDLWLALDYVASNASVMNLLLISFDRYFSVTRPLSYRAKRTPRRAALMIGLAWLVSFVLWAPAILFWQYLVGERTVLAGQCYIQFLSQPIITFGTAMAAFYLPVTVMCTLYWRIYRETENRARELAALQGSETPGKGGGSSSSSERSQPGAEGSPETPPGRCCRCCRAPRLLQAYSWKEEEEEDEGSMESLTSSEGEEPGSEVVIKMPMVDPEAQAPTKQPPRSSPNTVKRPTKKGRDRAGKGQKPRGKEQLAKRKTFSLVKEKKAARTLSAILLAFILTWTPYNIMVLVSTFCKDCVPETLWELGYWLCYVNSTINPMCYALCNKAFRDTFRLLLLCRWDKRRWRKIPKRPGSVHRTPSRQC
The experiment in a line: Ca2+ mobilization potentiation of ACh ~EC20, M1 CHO cells. The format is cell-based. Background: Calcium flux is commonly read through the fluorescence of an indicator in the cells.

Assay [2] concerns the target T2, M4 (Homo sapiens, UniProt P08173).
T2 sequence (P08173 1-479): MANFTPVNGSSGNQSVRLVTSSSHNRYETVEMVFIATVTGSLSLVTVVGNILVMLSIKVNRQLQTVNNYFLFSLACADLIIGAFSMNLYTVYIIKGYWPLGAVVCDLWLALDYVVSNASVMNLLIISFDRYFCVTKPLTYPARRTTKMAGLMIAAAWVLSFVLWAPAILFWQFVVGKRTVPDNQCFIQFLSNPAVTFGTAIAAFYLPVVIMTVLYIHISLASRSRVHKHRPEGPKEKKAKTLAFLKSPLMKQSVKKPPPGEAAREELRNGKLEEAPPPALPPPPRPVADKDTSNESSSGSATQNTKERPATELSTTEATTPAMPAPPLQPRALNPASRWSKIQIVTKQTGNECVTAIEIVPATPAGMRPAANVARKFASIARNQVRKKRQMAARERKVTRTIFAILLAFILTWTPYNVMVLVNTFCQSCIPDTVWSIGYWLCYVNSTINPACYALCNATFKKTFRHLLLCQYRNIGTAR
Type of assay: cell-based. Conditions: for M4 potentiator activity: fixed ACh ~EC20, Ca2+ assay, Gqi5 cotransfected, up to 30 µM.

For assay [3], the target named is T3, M5 (Homo sapiens, UniProt P08912).
T3 sequence (P08912 1-532): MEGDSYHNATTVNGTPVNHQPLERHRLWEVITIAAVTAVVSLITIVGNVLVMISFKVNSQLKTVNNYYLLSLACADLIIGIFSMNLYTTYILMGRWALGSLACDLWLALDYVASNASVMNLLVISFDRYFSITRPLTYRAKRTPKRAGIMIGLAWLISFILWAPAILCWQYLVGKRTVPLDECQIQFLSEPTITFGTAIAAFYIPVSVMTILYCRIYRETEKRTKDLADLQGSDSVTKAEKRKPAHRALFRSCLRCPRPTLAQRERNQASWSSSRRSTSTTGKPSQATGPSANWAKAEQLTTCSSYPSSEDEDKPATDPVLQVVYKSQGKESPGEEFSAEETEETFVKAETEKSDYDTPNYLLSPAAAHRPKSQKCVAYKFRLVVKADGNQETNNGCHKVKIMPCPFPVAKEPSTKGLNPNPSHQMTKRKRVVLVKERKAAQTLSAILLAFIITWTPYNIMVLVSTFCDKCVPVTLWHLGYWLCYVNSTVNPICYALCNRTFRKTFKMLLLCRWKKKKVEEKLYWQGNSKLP
The assay can be described thus: [3H]-NMS competition binding, M5-CHO membrane preparations. The note with it: up to 30 µM, M5-CHO membranes.

For assay [4], the target named is T3, M5. The experiment in a line: Ca2+ mobilization assay, M5 CHO cells. The format is cell-based.
In assay [5] the target is T4, M2 (Homo sapiens, UniProt P08172).
T4 sequence (P08172 1-466): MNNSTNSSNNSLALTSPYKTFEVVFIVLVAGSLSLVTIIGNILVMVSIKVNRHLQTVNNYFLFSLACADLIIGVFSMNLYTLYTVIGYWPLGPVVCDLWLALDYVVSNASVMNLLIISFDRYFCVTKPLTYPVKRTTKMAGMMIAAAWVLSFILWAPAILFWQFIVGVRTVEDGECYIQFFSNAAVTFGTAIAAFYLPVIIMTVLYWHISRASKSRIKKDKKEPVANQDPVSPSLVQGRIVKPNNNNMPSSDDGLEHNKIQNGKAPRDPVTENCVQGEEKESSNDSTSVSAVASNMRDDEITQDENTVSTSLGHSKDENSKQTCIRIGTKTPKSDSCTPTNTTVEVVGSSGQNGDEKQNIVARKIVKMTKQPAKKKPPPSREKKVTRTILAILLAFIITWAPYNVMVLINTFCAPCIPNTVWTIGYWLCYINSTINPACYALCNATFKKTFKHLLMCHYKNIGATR
Type of assay: cell-based. Conditions: fixed ACh ~EC20, Ca2+ assay, Gqi5 cotransfected, up to 30 µM.

Assay [6] has as its target T1, M1. The note with it: fixed 30 µM compound, at M1; cited from earlier work.

Entries after “also recorded” stand apart in the source; their conditions may differ. Read-outs that look alike come from different tables or passages of the source. Where only a bound is given, the exact number is not on record here.

A word on the EC50: it is the concentration giving half of the maximal effect. Turning to `COc1ccc(CN2C(=O)C(=O)c3ccccc32)cc1` [compound 22], the 50% effective concentration (EC50) in assay [1] is greater than 10 µM.

Turning to `COc1cccc(CN2C(=O)C(=O)c3c(Cl)ccc(Cl)c32)c1` [compound 38], the EC50 in assay [1] was greater than 30 µM.

For the molecule `COc1cccc(CN2C(=O)C(=O)c3cc(OC(F)(F)F)ccc32)c1` [compound 41], in assay [1], the EC50 was greater than 30 µM.

With `COc1ccc(CN2C(=O)C(=O)c3cc(OC(F)(F)F)ccc32)cc1` [compound 42], the M4 potentiator activity entry is “lack of potentiation activity; also recorded: inactive” in assay [2] and “no M2 or M4 potentiator activity” in assay [2] (listed as VU0238429). Also, the concentration for a half-maximal effect (EC50) in assay [1] is greater than 30 µM. Further, the “competition with [3H]-NMS binding to M5” value in assay [3] is on record as “lack of competition; also recorded: lacked competition”. Further, the “intrinsic agonist activity at M5” value in assay [4] (compound alone, absence of ACh, up to 30 µM, Ca2+ assay) is “absence of intrinsic agonist activity; also recorded: lacked intrinsic agonist activity”. In assay [4] (from EC50 in Ca2+ assays), the “selectivity for M5 versus M1 and M3” value is given as greater than 30 fold. Further, the “selectivity for M5 versus the other four subtypes” value in assay [4] (from EC50 in Ca2+ assays) is recorded as greater than 30 ×. The M2 potentiator activity entry was “lack of potentiation activity; also recorded: inactive” in assay [5] and “no M2 or M4 potentiator activity” in assay [5] (listed as VU0238429).

On to `O=C1C(=O)N(Cc2ccccc2C(F)(F)F)c2c(F)cccc21` [compound 49], for which the EC50 in assay [1] was greater than 30 µM.

For `O=C1C(=O)N(Cc2ccc(C(F)(F)F)cc2)c2c(Cl)cccc21` [compound 56], in assay [2], the EC50 was greater than 10 µM and the M4 potentiator activity entry is recorded as “modest potentiation”. Moreover, the M2 potentiator activity entry in assay [5] is “modest potentiation”.

As to `O=C1C(=O)N(Cc2ccccc2Cl)c2ccc(OC(F)(F)F)cc21` [compound 64], the EC50 in assay [1] was greater than 30 µM.

As to `O=C1C(=O)N(Cc2ccc(OC(F)(F)F)cc2)c2ccc(OC(F)(F)F)cc21` [compound 110], in assay [1], the EC50 was greater than 30 µM.

With `Cc1ccccc1CN1C(=O)C(=O)c2cc(OC(F)(F)F)ccc21` [compound 111], the EC50 in assay [1] was greater than 30 µM.

As for `O=C1C(=O)N(Cc2ccc(Br)cc2F)c2ccc(OC(F)(F)F)cc21` [compound 112], in assay [1], the EC50 was greater than 30 µM.

Turning to `O=C1C(=O)N(Cc2ccc(Br)cc2)c2ccccc21` [compound 113], the M4 potentiator activity entry in assay [2] was “lacked potentiator effects; also recorded: inactive”. The M2 potentiator activity entry in assay [5] is “lacked potentiator effects; also recorded: inactive”. Besides, the “leftward shift of full ACh CRC” value in assay [6] is 14 fold.
